assay: Half life in Sprague-Dawley rat at 0.5 mg/kg, iv measured upto 24 hrs by LC-MS/MS analysis; assay type: ADME, organism-based; details: in vivo

SMILES	half-life [h]
O=C1COc2cc(F)c(C(=O)Nc3cccc(-c4nncn4C4CC4)n3)cc2N1	0.97
CC(C)n1cnnc1-c1cccc(NC(=O)c2cc3c(cc2F)OC(C)(C)C(=O)N3)n1	0.74
O=C1CCc2cc(F)c(C(=O)Nc3cccc(-c4nncn4C4CC4)n3)cc2N1	0.72

assay: Metabolic stability in human liver microsomes assessed as half life at 1 uM measured upto 90 mins by LC-MS/MS analysis; assay type: ADME, Microsome; details: not given

SMILES	half-life at 1 µM [h]
O=C1COc2cc(F)c(C(=O)Nc3cccc(-c4nncn4C4CC4)n3)cc2N1	7.24
O=C1CCc2cc(F)c(C(=O)Nc3cccc(-c4nncn4C4CC4)n3)cc2N1	7.54

assay: Cmax in Sprague-Dawley rat at 2.5 mg/kg, po measured upto 24 hrs by LC-MS/MS analysis; assay type: ADME, organism-based; parameters: dose 2.5 mg/kg, time < 24 hrs, route po; details: in vivo

SMILES	Cmax [ng/mL]
O=C1COc2cc(F)c(C(=O)Nc3cccc(-c4nncn4C4CC4)n3)cc2N1	832
CC(C)n1cnnc1-c1cccc(NC(=O)c2cc3c(cc2F)OC(C)(C)C(=O)N3)n1	554
O=C1CCc2cc(F)c(C(=O)Nc3cccc(-c4nncn4C4CC4)n3)cc2N1	345

assay: Metabolic stability in rat liver microsomes assessed as clearance at 1 uM measured upto 90 mins by LC-MS/MS analysis; assay type: ADME, Microsome; details: read-out: CLH

SMILES	CLint scaled at 1 µM [mL/min/kg]
O=C1COc2cc(F)c(C(=O)Nc3cccc(-c4nncn4C4CC4)n3)cc2N1	10.2
O=C1CCc2cc(F)c(C(=O)Nc3cccc(-c4nncn4C4CC4)n3)cc2N1	10.2

assay: AUClast in Sprague-Dawley rat at 0.5 mg/kg, iv measured upto 24 hrs by LC-MS/MS analysis; assay type: ADME, organism-based; parameters: time < 24 hrs, dose 0.5 mg/kg, route iv; details: in vivo

SMILES	AUC(0-t) at 24 h [ng·h/mL]
O=C1COc2cc(F)c(C(=O)Nc3cccc(-c4nncn4C4CC4)n3)cc2N1	592
CC(C)n1cnnc1-c1cccc(NC(=O)c2cc3c(cc2F)OC(C)(C)C(=O)N3)n1	276
O=C1CCc2cc(F)c(C(=O)Nc3cccc(-c4nncn4C4CC4)n3)cc2N1	469

assay: Volume of distribution at steady state in Sprague-Dawley rat at 0.5 mg/kg, iv measured upto 24 hrs by LC-MS/MS analysis; assay type: ADME, organism-based; details: in vivo, read-out: Vdss

SMILES	Vd [L/kg]
O=C1COc2cc(F)c(C(=O)Nc3cccc(-c4nncn4C4CC4)n3)cc2N1	1.07
CC(C)n1cnnc1-c1cccc(NC(=O)c2cc3c(cc2F)OC(C)(C)C(=O)N3)n1	1.35
O=C1CCc2cc(F)c(C(=O)Nc3cccc(-c4nncn4C4CC4)n3)cc2N1	0.96

assay: Cmax in Sprague-Dawley rat at 0.5 mg/kg, iv measured upto 24 hrs by LC-MS/MS analysis; assay type: ADME, organism-based; parameters: time < 24 hrs, dose 0.5 mg/kg, route iv; details: in vivo

SMILES	Cmax [ng/mL]
O=C1COc2cc(F)c(C(=O)Nc3cccc(-c4nncn4C4CC4)n3)cc2N1	489
CC(C)n1cnnc1-c1cccc(NC(=O)c2cc3c(cc2F)OC(C)(C)C(=O)N3)n1	350
O=C1CCc2cc(F)c(C(=O)Nc3cccc(-c4nncn4C4CC4)n3)cc2N1	447

assay: Metabolic stability in human liver microsomes assessed as clearance at 1 uM measured upto 90 mins by LC-MS/MS analysis; assay type: ADME, Microsome; details: read-out: CLH

SMILES	CLint scaled at 1 µM [mL/min/kg]
O=C1COc2cc(F)c(C(=O)Nc3cccc(-c4nncn4C4CC4)n3)cc2N1	4
O=C1CCc2cc(F)c(C(=O)Nc3cccc(-c4nncn4C4CC4)n3)cc2N1	3.8

assay: Apparent […] clearance in Sprague-Dawley rat at 0.5 mg/kg, iv measured upto 24 hrs by LC-MS/MS analysis; assay type: ADME, organism-based; details: in vivo

SMILES	CL/F [mL/min/kg]
O=C1COc2cc(F)c(C(=O)Nc3cccc(-c4nncn4C4CC4)n3)cc2N1	14
CC(C)n1cnnc1-c1cccc(NC(=O)c2cc3c(cc2F)OC(C)(C)C(=O)N3)n1	30
O=C1CCc2cc(F)c(C(=O)Nc3cccc(-c4nncn4C4CC4)n3)cc2N1	17.7

assay: Oral bioavailability in Sprague-Dawley rat at 2.5 mg/kg measured upto 24 hrs by LC-MS/MS analysis; assay type: ADME, organism-based; details: in vivo

SMILES	bioavailability [%]
O=C1COc2cc(F)c(C(=O)Nc3cccc(-c4nncn4C4CC4)n3)cc2N1	83.6
CC(C)n1cnnc1-c1cccc(NC(=O)c2cc3c(cc2F)OC(C)(C)C(=O)N3)n1	95
O=C1CCc2cc(F)c(C(=O)Nc3cccc(-c4nncn4C4CC4)n3)cc2N1	57.4

assay: Metabolic stability in rat liver microsomes assessed as half life at 1 uM measured upto 90 mins by LC-MS/MS analysis; assay type: ADME, Microsome; details: not given

SMILES	half-life at 1 µM [h]
O=C1COc2cc(F)c(C(=O)Nc3cccc(-c4nncn4C4CC4)n3)cc2N1	4.08
O=C1CCc2cc(F)c(C(=O)Nc3cccc(-c4nncn4C4CC4)n3)cc2N1	4.07

assay: AUClast in Sprague-Dawley rat at 2.5 mg/kg, po measured upto 24 hrs by LC-MS/MS analysis; assay type: ADME, organism-based; parameters: dose 2.5 mg/kg, time < 24 hrs, route po; details: in vivo

SMILES	AUC(0-t) at 24 h [ng·h/mL]
O=C1COc2cc(F)c(C(=O)Nc3cccc(-c4nncn4C4CC4)n3)cc2N1	2390
CC(C)n1cnnc1-c1cccc(NC(=O)c2cc3c(cc2F)OC(C)(C)C(=O)N3)n1	1260
O=C1CCc2cc(F)c(C(=O)Nc3cccc(-c4nncn4C4CC4)n3)cc2N1	1330

assay: Half life in Sprague-Dawley rat at 2.5 mg/kg, po measured upto 24 hrs by LC-MS/MS analysis; assay type: ADME, organism-based; details: in vivo

SMILES	half-life [h]
O=C1COc2cc(F)c(C(=O)Nc3cccc(-c4nncn4C4CC4)n3)cc2N1	2.07
CC(C)n1cnnc1-c1cccc(NC(=O)c2cc3c(cc2F)OC(C)(C)C(=O)N3)n1	1.39
O=C1CCc2cc(F)c(C(=O)Nc3cccc(-c4nncn4C4CC4)n3)cc2N1	2

Reference: ChEMBL document CHEMBL5344477, “Discovery of benzoheterocyclic-substituted amide derivatives as apoptosis signal-regulating kinase 1 (ASK1) inhibitors” (RSC Med Chem, 2024)
